Measurements from patent publication US20240024273A1, “TOPICAL ADMINISTRATION OF 2-(DIETHYLAMINO)ETHYL 2-(4-ISOBUTYLPHENYL)PROPRIONATE FOR TREATMENT OF DISEASES” (TECHFIELDS PHARMA CO., LTD., priority 2020, published 2024).

Tests used:
[1] = system: Osteoarthritis Induced by Transection of the Anterior Cruciate Ligament (ACL); test: Osteoarthritis induced by transection of the anterior cruciate ligament (I), treatment 4-10 weeks post-surgery; format: in vivo, SD Rats; conditions: transdermal; did not reach statistical significance
[2] = system: Acetic Acid Induced Pain; test: Acetic acid induced pain (writhing); format: in vivo, ICR mice
[3] = 14-day repeated dermal dose toxicity study; design: species or system Beagle dogs; conditions: beagle, dog, in vivo, topical or ocular; 14-day dermal
[4] = system: Subjects with Mild to Moderate Osteoarthritis of the Knee; test: Phase 2 study: safety; format: in vivo, human
Description: Safety assessments will be performed at each visit and will include assessment of AEs, vital signs (blood pressure, pulse rate, and oral temperature), clinical laboratories, physical examination, skin irritation, and electrocardiograms (ECGs) as indicated in the study flow chart, Table 14.
Safety assessments will include AEs, vital signs (blood pressures, pulse rate, and oral temperature), clinical laboratories, physical examination, skin irritation, and ECGs at various time points during the study as indicated in the study flow chart.
Adverse events of interest include: local skin reactions around the treated knee(s), upper stomach pain, GI bleeding, serious cardiovascular side effects (e.g., thrombotic events, myocardial infarction, or stroke), jaundice, elevated liver function tests, and nausea.
Safety analyses will be conducted on the SAS. Safety parameters will be listed and summarized using standard descriptive statistics, as appropriate. No formal statistical analyses are planned.

CCN(CC)CCOC(=O)C(C)c1ccc(CC(C)C)cc1 (stereo not shown) [2-(diethylamino)ethyl 2-(4-isobutylphenyl)propionate]
severity of osteoarthritic degeneration (histopathology) [1]: showed recognizable reduction in the severity of osteOArthritic
inhibitory effect compared with Vehicle ([2]; high dose): 2-(4-isobutylphenyl)propionate showed significant inhibitory effect
inhibitory effect ([2]; low dose): 2-(4-isobutylphenyl)propionate did not show any inhibitory effect in this
NOAEL at 14 days [3]: 50 mg/kg/day
safety and tolerability ([4]; all three doses (8.75, 17.5, 35 mg/knee BID)): appeared to be safe and were generally well tolerated
gastrointestinal disorder incidences (very mild) ([4]; whole study): 12 incidences
skin irritation incidences ([4]; whole study, total): 8 incidences
